Activity calls are given as the source filed them.
What was measured:
[1] = molecular target: Tyrosine-protein kinase ABL2 (Homo sapiens, UniProt P42684)
[2] = molecular target: T1, Beta-adrenergic receptor kinase 1 (Homo sapiens, UniProt P25098)
T1 sequence (P25098 whole entry): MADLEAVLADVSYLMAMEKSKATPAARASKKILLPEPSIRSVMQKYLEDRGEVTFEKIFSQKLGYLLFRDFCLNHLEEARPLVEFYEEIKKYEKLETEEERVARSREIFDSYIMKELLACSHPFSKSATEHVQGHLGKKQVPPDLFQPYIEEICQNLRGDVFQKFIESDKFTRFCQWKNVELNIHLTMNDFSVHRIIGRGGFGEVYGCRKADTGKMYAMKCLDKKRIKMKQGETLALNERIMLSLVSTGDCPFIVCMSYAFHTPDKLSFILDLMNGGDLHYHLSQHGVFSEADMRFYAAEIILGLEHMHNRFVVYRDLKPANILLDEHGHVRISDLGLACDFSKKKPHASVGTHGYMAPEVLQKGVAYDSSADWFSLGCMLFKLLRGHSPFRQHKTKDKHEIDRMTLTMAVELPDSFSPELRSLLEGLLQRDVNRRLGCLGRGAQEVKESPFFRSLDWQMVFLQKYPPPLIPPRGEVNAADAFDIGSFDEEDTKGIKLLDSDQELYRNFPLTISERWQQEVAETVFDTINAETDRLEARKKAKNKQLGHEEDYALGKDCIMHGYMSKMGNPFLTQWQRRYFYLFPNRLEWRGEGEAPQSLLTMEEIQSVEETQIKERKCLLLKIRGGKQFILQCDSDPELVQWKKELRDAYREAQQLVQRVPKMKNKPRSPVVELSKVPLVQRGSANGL

[3] = molecular target: T2, Serine/threonine-protein kinase A-Raf (Homo sapiens, UniProt P10398)
T2 sequence (P10398 whole entry): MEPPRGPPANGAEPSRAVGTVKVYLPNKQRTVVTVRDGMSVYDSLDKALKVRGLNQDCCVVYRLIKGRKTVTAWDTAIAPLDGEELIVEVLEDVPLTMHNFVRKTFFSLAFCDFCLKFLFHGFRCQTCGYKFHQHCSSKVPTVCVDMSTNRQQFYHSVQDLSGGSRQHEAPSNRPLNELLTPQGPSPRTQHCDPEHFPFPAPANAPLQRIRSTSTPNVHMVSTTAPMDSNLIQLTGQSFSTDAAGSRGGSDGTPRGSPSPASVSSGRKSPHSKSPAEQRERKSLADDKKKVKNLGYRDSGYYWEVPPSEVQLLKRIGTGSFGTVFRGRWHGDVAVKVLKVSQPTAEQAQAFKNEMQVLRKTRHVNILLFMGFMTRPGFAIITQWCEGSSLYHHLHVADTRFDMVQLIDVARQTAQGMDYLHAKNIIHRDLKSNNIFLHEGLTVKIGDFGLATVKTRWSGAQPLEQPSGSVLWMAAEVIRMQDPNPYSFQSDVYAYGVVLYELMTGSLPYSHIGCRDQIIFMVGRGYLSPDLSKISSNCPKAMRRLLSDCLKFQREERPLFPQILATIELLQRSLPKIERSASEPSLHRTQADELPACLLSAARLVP

[4] = molecular target: Serine/threonine-protein kinase/endoribonuclease IRE2 (Homo sapiens, UniProt Q76MJ5)
[5] = molecular target: Fibroblast growth factor receptor 1 (Homo sapiens, UniProt P11362)
[6] = molecular target: 5'-AMP-activated protein kinase catalytic subunit alpha-1 (Homo sapiens, UniProt Q13131)
[7] = molecular target: Ribosomal protein S6 kinase alpha-3 (Homo sapiens, UniProt P51812)
[8] = molecular target: T3, Structural maintenance of chromosomes protein 1A (Homo sapiens, UniProt Q14683)
T3 sequence (Q14683 whole entry): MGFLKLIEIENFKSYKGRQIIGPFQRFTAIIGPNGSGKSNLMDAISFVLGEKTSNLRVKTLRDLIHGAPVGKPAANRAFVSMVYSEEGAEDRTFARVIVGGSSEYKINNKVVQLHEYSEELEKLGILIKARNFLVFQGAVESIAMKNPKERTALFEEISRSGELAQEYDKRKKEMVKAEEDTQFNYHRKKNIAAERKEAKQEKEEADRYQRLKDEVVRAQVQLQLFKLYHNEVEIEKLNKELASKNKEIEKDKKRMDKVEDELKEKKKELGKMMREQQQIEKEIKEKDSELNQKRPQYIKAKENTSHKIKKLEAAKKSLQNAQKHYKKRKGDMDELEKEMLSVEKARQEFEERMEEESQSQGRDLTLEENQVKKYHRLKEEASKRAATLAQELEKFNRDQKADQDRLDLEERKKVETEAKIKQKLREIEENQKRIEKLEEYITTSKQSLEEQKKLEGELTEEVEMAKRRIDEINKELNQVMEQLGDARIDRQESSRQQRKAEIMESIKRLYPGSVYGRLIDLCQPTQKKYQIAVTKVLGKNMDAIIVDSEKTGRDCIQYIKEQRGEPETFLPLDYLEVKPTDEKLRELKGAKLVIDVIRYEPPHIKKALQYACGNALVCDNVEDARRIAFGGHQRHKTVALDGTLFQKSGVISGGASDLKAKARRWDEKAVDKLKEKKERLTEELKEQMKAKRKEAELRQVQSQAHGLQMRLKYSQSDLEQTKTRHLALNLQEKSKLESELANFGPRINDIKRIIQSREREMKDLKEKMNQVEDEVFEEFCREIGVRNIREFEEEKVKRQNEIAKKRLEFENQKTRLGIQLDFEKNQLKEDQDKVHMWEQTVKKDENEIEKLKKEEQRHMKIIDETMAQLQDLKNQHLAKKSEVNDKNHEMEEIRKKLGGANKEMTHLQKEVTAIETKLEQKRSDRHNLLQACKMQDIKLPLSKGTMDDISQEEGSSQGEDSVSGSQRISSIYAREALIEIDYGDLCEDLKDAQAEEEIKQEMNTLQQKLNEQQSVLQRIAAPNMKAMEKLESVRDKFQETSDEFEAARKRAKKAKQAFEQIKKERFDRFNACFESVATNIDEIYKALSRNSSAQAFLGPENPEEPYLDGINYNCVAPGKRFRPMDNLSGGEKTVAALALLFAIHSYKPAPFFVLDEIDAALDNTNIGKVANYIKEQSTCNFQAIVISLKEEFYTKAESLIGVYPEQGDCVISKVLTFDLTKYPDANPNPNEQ

[9] = molecular target: DNA topoisomerase 2-alpha (Homo sapiens, UniProt P11388)
Also: in the data inactive means no Kd found up to 30 µM.

Sequence of Ribosomal protein S6 kinase alpha-3 (P51812 whole entry): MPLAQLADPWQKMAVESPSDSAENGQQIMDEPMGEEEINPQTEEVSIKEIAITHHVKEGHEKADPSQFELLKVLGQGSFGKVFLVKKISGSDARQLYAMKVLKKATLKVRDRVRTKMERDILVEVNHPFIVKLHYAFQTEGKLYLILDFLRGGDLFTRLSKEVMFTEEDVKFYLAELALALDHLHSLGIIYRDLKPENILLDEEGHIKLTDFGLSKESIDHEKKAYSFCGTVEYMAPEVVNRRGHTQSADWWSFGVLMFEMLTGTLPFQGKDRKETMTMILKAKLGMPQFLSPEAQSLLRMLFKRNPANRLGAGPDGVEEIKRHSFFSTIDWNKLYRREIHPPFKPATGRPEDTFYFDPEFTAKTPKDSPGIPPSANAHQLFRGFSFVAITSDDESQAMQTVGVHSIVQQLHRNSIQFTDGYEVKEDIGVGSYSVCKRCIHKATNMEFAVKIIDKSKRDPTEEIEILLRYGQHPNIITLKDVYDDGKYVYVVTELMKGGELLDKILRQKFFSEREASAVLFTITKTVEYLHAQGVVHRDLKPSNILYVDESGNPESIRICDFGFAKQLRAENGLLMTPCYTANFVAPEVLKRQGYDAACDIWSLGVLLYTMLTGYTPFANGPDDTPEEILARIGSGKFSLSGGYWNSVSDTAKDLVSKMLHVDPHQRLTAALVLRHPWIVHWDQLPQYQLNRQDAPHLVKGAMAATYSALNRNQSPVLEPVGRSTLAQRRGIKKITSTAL
Sequence of Fibroblast growth factor receptor 1 (P11362 whole entry): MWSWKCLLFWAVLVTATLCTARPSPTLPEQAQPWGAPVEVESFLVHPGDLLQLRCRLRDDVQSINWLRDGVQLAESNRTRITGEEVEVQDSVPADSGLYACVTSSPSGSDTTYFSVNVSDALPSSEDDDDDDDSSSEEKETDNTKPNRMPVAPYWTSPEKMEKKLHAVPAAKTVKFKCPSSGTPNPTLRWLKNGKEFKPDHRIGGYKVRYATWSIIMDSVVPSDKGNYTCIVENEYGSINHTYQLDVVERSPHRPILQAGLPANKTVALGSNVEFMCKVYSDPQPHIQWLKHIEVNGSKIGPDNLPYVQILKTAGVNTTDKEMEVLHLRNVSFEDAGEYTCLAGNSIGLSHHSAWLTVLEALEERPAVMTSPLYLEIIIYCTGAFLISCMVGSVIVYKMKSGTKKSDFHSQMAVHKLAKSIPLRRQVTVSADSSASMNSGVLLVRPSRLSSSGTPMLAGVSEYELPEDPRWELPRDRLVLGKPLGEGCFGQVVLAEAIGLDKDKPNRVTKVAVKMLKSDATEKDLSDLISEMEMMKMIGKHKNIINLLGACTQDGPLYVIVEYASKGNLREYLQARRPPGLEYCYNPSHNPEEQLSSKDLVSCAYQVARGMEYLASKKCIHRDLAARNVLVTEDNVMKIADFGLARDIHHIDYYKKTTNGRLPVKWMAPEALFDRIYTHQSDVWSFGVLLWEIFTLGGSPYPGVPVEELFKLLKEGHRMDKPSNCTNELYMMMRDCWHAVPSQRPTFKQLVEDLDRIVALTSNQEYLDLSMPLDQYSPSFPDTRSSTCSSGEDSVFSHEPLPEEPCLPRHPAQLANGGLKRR
Sequence of DNA topoisomerase 2-alpha (P11388 whole entry): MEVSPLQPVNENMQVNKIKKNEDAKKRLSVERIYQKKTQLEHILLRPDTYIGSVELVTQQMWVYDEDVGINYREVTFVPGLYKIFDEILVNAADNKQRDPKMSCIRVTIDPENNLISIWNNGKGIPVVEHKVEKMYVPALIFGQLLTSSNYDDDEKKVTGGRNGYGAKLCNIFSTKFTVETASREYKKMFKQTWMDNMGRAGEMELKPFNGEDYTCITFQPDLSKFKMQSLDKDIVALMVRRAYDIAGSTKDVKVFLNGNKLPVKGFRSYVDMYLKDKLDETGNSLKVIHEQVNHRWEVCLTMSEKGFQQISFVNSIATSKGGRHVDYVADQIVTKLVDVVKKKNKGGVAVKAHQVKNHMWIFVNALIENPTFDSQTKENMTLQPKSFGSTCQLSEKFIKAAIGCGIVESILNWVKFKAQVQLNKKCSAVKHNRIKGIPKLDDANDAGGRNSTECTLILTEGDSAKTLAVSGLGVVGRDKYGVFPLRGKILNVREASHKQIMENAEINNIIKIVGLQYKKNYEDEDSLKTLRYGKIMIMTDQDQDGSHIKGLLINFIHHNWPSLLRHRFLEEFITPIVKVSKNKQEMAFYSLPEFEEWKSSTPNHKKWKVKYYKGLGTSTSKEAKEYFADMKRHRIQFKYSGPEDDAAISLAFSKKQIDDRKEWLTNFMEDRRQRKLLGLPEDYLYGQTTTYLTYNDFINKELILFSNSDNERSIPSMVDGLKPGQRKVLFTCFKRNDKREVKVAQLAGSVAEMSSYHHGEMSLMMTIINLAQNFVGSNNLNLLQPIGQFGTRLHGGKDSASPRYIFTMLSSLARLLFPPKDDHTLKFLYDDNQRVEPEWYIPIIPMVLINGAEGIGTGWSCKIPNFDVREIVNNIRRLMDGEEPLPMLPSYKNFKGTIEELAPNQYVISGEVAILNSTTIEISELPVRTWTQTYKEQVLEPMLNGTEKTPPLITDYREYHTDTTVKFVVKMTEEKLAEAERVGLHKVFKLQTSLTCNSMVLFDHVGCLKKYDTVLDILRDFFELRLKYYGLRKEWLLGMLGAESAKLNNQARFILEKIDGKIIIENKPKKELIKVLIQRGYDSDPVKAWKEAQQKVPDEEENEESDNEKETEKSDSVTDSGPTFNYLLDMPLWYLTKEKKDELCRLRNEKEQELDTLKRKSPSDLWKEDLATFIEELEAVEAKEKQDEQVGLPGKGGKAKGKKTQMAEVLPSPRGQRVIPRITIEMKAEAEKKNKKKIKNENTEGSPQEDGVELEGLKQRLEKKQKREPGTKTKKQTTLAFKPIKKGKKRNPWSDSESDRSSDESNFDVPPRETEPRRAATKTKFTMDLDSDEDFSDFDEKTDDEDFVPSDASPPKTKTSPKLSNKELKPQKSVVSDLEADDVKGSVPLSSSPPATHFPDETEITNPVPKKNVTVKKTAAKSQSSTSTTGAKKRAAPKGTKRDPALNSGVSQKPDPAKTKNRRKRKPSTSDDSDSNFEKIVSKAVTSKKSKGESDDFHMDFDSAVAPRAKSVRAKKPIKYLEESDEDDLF
Sequence of Tyrosine-protein kinase ABL2 (P42684 whole entry): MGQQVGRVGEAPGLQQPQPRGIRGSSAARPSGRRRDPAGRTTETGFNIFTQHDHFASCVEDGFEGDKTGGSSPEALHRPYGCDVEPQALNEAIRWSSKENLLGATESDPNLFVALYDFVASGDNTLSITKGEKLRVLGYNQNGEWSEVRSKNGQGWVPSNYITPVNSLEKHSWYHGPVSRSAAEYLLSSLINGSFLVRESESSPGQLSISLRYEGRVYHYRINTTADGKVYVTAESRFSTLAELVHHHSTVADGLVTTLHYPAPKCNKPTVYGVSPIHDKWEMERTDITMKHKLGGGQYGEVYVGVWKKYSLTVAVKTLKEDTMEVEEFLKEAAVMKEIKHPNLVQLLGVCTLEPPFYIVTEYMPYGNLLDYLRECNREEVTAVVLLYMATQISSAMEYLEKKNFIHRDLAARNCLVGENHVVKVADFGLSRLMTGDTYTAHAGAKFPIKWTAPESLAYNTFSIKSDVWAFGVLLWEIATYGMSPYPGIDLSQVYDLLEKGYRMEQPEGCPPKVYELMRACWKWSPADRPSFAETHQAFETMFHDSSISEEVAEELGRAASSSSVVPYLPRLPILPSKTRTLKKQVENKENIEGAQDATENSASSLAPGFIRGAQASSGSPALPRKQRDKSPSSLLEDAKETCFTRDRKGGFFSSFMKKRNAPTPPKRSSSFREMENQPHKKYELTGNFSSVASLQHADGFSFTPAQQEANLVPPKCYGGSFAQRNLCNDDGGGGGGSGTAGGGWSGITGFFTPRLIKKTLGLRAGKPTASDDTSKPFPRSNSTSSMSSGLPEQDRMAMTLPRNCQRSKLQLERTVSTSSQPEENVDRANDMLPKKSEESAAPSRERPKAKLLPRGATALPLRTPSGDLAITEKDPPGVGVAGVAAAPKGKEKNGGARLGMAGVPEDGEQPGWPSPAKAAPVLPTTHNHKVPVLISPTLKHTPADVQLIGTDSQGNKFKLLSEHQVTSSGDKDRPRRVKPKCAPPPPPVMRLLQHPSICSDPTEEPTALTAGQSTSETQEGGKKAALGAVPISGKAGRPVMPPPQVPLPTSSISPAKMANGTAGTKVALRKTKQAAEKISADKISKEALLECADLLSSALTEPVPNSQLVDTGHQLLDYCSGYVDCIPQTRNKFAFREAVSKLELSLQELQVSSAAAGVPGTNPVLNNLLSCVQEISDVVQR
Sequence of 5'-AMP-activated protein kinase catalytic subunit alpha-1 (Q13131 whole entry): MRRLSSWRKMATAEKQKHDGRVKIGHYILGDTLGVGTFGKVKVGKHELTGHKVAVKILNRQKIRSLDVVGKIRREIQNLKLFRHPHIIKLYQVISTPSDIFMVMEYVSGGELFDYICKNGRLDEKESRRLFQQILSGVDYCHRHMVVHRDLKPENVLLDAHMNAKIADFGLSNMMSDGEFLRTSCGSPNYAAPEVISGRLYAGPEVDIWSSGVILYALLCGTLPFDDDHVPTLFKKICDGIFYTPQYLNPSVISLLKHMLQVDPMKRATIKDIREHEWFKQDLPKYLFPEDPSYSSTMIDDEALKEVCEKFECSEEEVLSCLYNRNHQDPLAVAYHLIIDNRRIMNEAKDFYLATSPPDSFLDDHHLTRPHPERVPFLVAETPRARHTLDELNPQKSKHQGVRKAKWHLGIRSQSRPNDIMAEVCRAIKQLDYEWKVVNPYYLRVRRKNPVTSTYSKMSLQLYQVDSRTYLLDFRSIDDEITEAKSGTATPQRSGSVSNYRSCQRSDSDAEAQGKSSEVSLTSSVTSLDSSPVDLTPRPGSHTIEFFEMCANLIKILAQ

SMILES | Kd [1] | Kd [2] | Kd [3] | Kd [4] | Kd [5] | Kd [6] | Kd [7] | Kd [8] | Kd [9]
CN1CC[C@@H](c2c(O)cc(O)c3c(=O)cc(-c4ccccc4Cl)oc23)[C@@H]1CO | > 30 µM (inactive) | > 30 µM (inactive) | > 30 µM (inactive) | > 30 µM (inactive) | > 30 µM (inactive) | > 30 µM (inactive) | > 30 µM (inactive) | > 30 µM (inactive) | > 30 µM (inactive)
Cc1cc(-c2cc(O)ccc2Cl)cc2nnc(Nc3ccc(OCCN4CCCC4)cc3)nc12 | 0.001 µM (active) | > 30 µM (inactive) | > 30 µM (inactive) | > 30 µM (inactive) | > 30 µM (inactive) | > 30 µM (inactive) | > 30 µM (inactive) | > 30 µM (inactive) | > 30 µM (inactive)
Cn1ncc(Cl)c1-c1cc(C(=O)N[C@H](CN)Cc2cccc(F)c2)sc1Cl [AFURESERTIB] | > 30 µM (inactive) | > 30 µM (inactive) | > 30 µM (inactive) | > 30 µM (inactive) | > 30 µM (inactive) | > 30 µM (inactive) | > 30 µM (inactive) | > 30 µM (inactive) | > 30 µM (inactive)
CNS(=O)(=O)Nc1nccc(Cc2c(C)c3ccc(Oc4ncccn4)cc3oc2=O)c1F [AVUTOMETINIB] | > 30 µM (inactive) | > 30 µM (inactive) | > 30 µM (inactive) | > 30 µM (inactive) | > 30 µM (inactive) | > 30 µM (inactive) | > 30 µM (inactive) | > 30 µM (inactive) | > 30 µM (inactive)
CNC(=O)c1ccc(C)c(-n2c(C)cc(OCc3ccc(F)cc3F)c(Br)c2=O)c1 [PH-797804] | > 30 µM (inactive) | > 30 µM (inactive) | > 30 µM (inactive) | > 30 µM (inactive) | > 30 µM (inactive) | > 30 µM (inactive) | > 30 µM (inactive) | > 30 µM (inactive) | –
CN1CCC(COc2cnc(-c3cccc(Cn4nc(-c5cccc(C#N)c5)ccc4=O)c3)nc2)CC1 [TEPOTINIB] | > 30 µM (inactive) | > 30 µM (inactive) | > 30 µM (inactive) | > 30 µM (inactive) | > 30 µM (inactive) | > 30 µM (inactive) | > 30 µM (inactive) | > 30 µM (inactive) | –
CN1N=C(N)c2cn([C@@H]3O[C@H](COP(=O)(O)O)[C@@H](O)[C@H]3O)c3ncnc1c23 [TRICIRIBINE PHOSPHATE] | > 30 µM (inactive) | > 30 µM (inactive) | – | > 30 µM (inactive) | > 30 µM (inactive) | > 30 µM (inactive) | > 30 µM (inactive) | > 30 µM (inactive) | > 30 µM (inactive)

Further lines, results first:

Kd [1] | Kd [2] | Kd [3] | Kd [4] | Kd [5] | Kd [6] | Kd [7] | Kd [8] | Kd [9] | SMILES
> 30 µM (inactive) | > 30 µM (inactive) | > 30 µM (inactive) | > 30 µM (inactive) | > 30 µM (inactive) | > 30 µM (inactive) | > 30 µM (inactive) | > 30 µM (inactive) | > 30 µM (inactive) | N[C@@H]1CCCN(c2c(/C=C3\SC(=O)NC3=O)cccc2-c2ccccc2)C1
> 30 µM (inactive) | > 30 µM (inactive) | > 30 µM (inactive) | > 30 µM (inactive) | > 30 µM (inactive) | > 30 µM (inactive) | > 30 µM (inactive) | > 30 µM (inactive) | > 30 µM (inactive) | Cc1ccc(S(=O)(=O)Nc2nc3ccccc3nc2Nc2ccc3nsnc3c2)cc1
14.9 µM (active) | > 30 µM (inactive) | > 30 µM (inactive) | > 30 µM (inactive) | > 30 µM (inactive) | > 30 µM (inactive) | > 30 µM (inactive) | > 30 µM (inactive) | > 30 µM (inactive) | CCN1CCN(Cc2ccc(-c3cc4c(N[C@H](C)c5ccccc5)ncnc4[nH]3)cc2)CC1 [AEE-788]
> 30 µM (inactive) | > 30 µM (inactive) | > 30 µM (inactive) | > 30 µM (inactive) | > 30 µM (inactive) | > 30 µM (inactive) | > 30 µM (inactive) | – | > 30 µM (inactive) | COc1cc(N2CCC(N3CCN(C)CC3)CC2)ccc1Nc1ncnc(Nc2ccccc2S(=O)(=O)C(C)C)n1 [ASP-3026]
> 30 µM (inactive) | > 30 µM (inactive) | > 30 µM (inactive) | > 30 µM (inactive) | 3.9 µM (active) | > 30 µM (inactive) | > 30 µM (inactive) | > 30 µM (inactive) | – | Cc1cc2c(F)c(Oc3ncnn4cc(OC[C@@H](C)OC(=O)[C@H](C)N)c(C)c34)ccc2[nH]1 [BRIVANIB ALANINATE]
– | > 30 µM (inactive) | > 30 µM (inactive) | > 30 µM (inactive) | > 30 µM (inactive) | > 30 µM (inactive) | > 30 µM (inactive) | > 30 µM (inactive) | > 30 µM (inactive) | COCCNCc1ccc(-c2cc3nccc(Oc4ccc(NC(=S)NC(=O)Cc5ccc(F)cc5)cc4F)c3s2)nc1 [GLESATINIB]
> 30 µM (inactive) | > 30 µM (inactive) | > 30 µM (inactive) | > 30 µM (inactive) | > 30 µM (inactive) | > 30 µM (inactive) | > 30 µM (inactive) | > 30 µM (inactive) | – | C1=C/COCc2cc(ccc2OCCN2CCCC2)Nc2nccc(n2)-c2cccc(c2)COC/1 [PACRITINIB]
> 30 µM (inactive) | > 30 µM (inactive) | > 30 µM (inactive) | > 30 µM (inactive) | > 30 µM (inactive) | > 30 µM (inactive) | > 30 µM (inactive) | > 30 µM (inactive) | – | CNC(=O)CN1CCC(Oc2cc3c(Nc4cccc(Cl)c4F)ncnc3cc2OC)CC1 [SAPITINIB]
> 30 µM (inactive) | > 30 µM (inactive) | > 30 µM (inactive) | > 30 µM (inactive) | > 30 µM (inactive) | > 30 µM (inactive) | > 30 µM (inactive) | > 30 µM (inactive) | – | C[C@@H]1CN(Cc2ccc(F)cc2)[C@@H](C)CN1C(=O)c1cc2c(C(=O)C(=O)N(C)C)cn(C)c2cc1Cl [TALMAPIMOD]
